According to US10981911B2, “Imidazopyrrolopyridine as inhibitors of the JAK family of kinases” (Janssen Pharmaceutica NV, priority 2016, dated 2021):

How the values were obtained:
Format in all cases: biochemical
JAK1-JH1JH2 = JAK1-JH1JH2 (Homo sapiens (Human), UniProt P23458); test: Enzymatic inhibition assay (RapidFire HTMS), JAK1; settings: 12.5 μM ATP, 200 μM substrate; read-out: JAK1-JH2JH1 IC50
From the text: (§1) LC/MS grade Water and Acetonitrile (ACN), were purchased from HoneyWell, Burdick & Jackson (Muskegon, Mich., USA). Dimethylsulfoxide 99.8% (DMSO) and Trifluoroacetic Acid 99.5% (TFA) were purchased from EMD Chemical (Gibbstown, N.J., USA). Adenosine triphosphate (ATP), 4-Morpholinepropanesulfonic acid (MOPS), Magnesium chloride (MgCl2), ethylenediaminetetraacetic acid (EDTA), dithiothreitol (DTT), formic acid >95% (FA) and Tween-20 were purchased from Sigma (St Louis, Mo., USA). 384-well polypropylene plates, Cat #781280 were purchased from Greiner (Monroe, N.C.), RapidFire™ cartridge A C4 Column (Agilent Technologies, Santa Clara, Calif.).
(§2) The HTMS experiments were performed in positive ionization mode on a RapidFire 300 instrument (Agilent Technologies, Santa Clara, Calif.), coupled with an ABSiex QTrap 4000 system with an Electrospray Ionization source (RF-MS) (Concord, ON, Canada). […] The entire system was operated using the RapidFire software interfaced with Analyst software for the mass spectrometer.
(§3) 11-point dosing series were made for each compound by serially diluting 1:3 or 1:4 in DMSO, with point 12 being a DMSO control. From the serial dilution plates, sample was transferred to a 384 wells assay plate (#781280, Greiner, Monroe, N.C.) using Labcyte Echo (Sunnyvale, Calif.), or Biosero ATS (San Diego, Calif.). The compounds were tested in duplicate. Column 12 was used for positive controls, and column 24 contained negative controls with no enzyme added. A compound from our internal collection, with inhibitory activity for JAK isoforms, was used as a reference compound. The final concentration of DMSO was ≤0.25% in a 20 μL reaction. […] The Tyk2 enzyme was pre-incubated with 2 mM ATP for 30 min prior to the reaction initiation. Immediately after the addition of the enzyme to the reaction mixture, the plate was centrifuged at 1000 rpm for 1 minute and incubated at 25° C. for 45 minutes for JAK 3 and 90 minutes for JAK1, JAK2 and Tyk2. The reaction was quenched by the addition of 20 μL of 0.5% TFA containing 0.15 μM of internal standard peptide using Multidrop Combi reagent dispenser (Thermo Scientific, Waltham, Mass.). […] After the quench, the assay plate was centrifuged at 3000 rpm for 3 minutes and sealed with pierceable aluminum foil (Cat #06644-001, Agilent) using a PlateLoc (Agilent Technologies, Santa Clara, Calif.). The plates then were transferred on to the RapidFire for the MS analysis. Compound inhibition was assessed by a decrease of the phosphorylated product levels in sample wells compared to the non-inhibited enzyme reaction.
(§4) The sample analysis on the RapidFire was performed using a mobile phase A consisting of Water/TFA/FA (100:0.01:0.1, v/v/v), a mobile phase B consisting of ACN/Water/TFA/FA (80:20:0.01:0.1, v/v/v). […] The samples were aspirated directly from the 384 assay plate and delivered onto RF-MS microscale solid-phase C4 extraction cartridge (Type A). The undesired component such as salt, cofactor, detergent and large protein were washed out and the retained analytes (substrate, product and IS) were coeluted directly onto the ABSiex Qtrap 4000 system.

Tyk2-JH1JH2 = Tyk2-JH1JH2 (Homo sapiens (Human), UniProt P29597, C1142A/C936A); test: Enzymatic inhibition assay (RapidFire HTMS), Tyk2; settings: 50 μM ATP, 200 μM substrate
From the text: as §1, §2, §3, §4

JAK3-JH1JH2 = JAK3-JH1JH2 (Homo sapiens (Human), UniProt P52333); test: Enzymatic inhibition assay (RapidFire HTMS), JAK3; settings: 150 μM ATP, 40 μM substrate
From the text: as §1, §2
as §3, with “compound.” for “compound. The final concentration of DMSO was ≤0.25% in a 20 μL reaction.”
as §4

Tyk2-JH1JH2, sequence (P29597 580-1182 C936A/C1142A): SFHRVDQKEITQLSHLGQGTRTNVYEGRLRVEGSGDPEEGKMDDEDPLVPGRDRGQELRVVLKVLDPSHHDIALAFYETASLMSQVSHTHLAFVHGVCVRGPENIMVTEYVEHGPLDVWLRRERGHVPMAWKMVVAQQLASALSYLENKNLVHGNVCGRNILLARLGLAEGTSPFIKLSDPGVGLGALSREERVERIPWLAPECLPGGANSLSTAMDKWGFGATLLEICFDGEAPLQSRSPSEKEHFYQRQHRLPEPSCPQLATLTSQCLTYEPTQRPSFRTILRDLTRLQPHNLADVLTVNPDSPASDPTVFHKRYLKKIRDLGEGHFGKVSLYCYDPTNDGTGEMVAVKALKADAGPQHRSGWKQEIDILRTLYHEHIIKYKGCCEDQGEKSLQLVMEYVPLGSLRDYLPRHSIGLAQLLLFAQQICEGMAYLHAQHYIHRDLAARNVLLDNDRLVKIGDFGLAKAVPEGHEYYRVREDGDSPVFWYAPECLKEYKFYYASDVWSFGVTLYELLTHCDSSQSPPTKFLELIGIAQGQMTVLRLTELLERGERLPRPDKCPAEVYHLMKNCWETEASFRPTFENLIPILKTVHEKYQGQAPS
JAK1-JH1JH2, sequence (P23458 574-1154): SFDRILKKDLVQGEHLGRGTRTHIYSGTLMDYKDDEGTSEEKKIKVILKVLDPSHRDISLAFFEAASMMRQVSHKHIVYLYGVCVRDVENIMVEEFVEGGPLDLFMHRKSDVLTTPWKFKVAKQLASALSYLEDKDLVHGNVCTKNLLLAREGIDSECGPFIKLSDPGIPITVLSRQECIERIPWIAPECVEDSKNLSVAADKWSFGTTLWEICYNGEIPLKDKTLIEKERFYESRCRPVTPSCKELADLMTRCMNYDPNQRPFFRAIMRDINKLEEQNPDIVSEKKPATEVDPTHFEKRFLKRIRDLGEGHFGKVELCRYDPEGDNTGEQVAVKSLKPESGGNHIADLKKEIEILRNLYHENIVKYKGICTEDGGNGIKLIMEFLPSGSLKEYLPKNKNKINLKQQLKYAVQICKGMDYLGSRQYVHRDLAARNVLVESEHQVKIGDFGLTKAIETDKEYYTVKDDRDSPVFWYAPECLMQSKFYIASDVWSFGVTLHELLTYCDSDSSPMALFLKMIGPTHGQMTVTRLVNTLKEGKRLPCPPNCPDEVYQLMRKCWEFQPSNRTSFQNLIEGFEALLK
JAK3-JH1JH2, sequence (P52333 512-1124): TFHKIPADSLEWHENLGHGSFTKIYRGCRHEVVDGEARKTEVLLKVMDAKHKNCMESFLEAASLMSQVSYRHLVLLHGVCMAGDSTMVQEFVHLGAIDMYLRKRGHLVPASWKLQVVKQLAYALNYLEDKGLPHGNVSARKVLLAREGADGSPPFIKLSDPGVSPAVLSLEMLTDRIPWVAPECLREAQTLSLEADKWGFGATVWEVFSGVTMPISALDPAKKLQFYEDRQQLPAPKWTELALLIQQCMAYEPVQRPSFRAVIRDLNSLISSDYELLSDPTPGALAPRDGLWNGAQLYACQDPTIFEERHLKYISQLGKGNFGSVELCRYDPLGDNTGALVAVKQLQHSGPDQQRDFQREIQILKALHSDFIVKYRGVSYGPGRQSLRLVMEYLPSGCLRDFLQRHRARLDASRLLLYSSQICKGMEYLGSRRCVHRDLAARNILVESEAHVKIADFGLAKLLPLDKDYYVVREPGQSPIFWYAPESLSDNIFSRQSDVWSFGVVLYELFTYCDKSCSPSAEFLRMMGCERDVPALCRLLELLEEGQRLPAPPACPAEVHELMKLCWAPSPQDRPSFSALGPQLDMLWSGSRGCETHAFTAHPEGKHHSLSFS

Compound	IC50 (JAK1-JH1JH2)	IC50 (Tyk2-JH1JH2)	IC50 (JAK3-JH1JH2)
N#CC[C@H]1CC[C@H](n2c(CC(=O)NCc3ccccc3)nc3cnc4[nH]ccc4c32)CC1 [Ex. 48, N-Benzyl-2-(1-((1r,4r)-4-(cyanomethyl)cyclohexyl)-1,6-dihydroimidazo[4,5-d]pyrrolo[2,3-b]pyridin-2-yl)acetamide]	0.0002 µM	0.0112 µM	0.193 µM
N#CC[C@H]1CC[C@H](n2c(Cc3ccn[nH]3)nc3cnc4[nH]ccc4c32)CC1 [Ex. 25, 2-((1r,4r)-4-(2-((1H-Pyrazol-5-yl)methyl)imidazo[4,5-d]pyrrolo[2,3-b]pyridin-1(6H)-yl)cyclohexyl)acetonitrile]	0.0001 µM	0.0053 µM	0.0779 µM
C[Si](C)(C)C1CCC(c2nc3cnc4[nH]ccc4c3n2[C@H]2CC[C@H](CC#N)CC2)CC1 (stereo partly drawn) [Ex. 100, 2-((1r,4r)-4-(2-(4-(Trimethylsilyl)cyclohexyl)imidazo[4,5-d]pyrrolo[2,3-b]pyridin-1(6H)-yl)cyclohexyl)acetonitrile]	0.072 µM	2.28 µM	> 6.25 µM
N#CC[C@H]1CC[C@H](n2c(CC(=O)Nc3ccc(C(O)(C(F)(F)F)C(F)(F)F)cc3)nc3cnc4[nH]ccc4c32)CC1 [Ex. 104, 2-(1-((1r,4r)-4-(Cyanomethyl)cyclohexyl)-1,6-dihydroimidazo[4,5-d]pyrrolo[2,3-b]pyridin-2-yl)-N-(4-(1,1,1,3,3,3-hexafluoro-2-hydroxypropan-2-yl)phenyl)acetamide]	0.0005 µM	0.0126 µM	0.298 µM
CC(C)(O)CNC(=O)c1nc2cnc3[nH]ccc3c2n1[C@H]1CC[C@H](CC#N)CC1 [Ex. 117, 1-((1r,4r)-4-(Cyanomethyl)cyclohexyl)-N-(2-hydroxy-2-methylpropyl)-1,6-dihydroimidazo[4,5-d]pyrrolo[2,3-b]pyridine-2-carboxamide]	0.0006 µM	0.0173 µM	0.273 µM
N#CC[C@H]1CC[C@H](n2c(-c3cn[nH]c3)nc3cnc4[nH]ccc4c32)CC1 [Ex. 123, 2-((1r,4r)-4-(2-(1H-pyrazol-4-yl)imidazo[4,5-d]pyrrolo[2,3-b]pyridin-1(6H)-yl)cyclohexyl)acetonitrile]	0.0007 µM	0.0116 µM	0.146 µM
COCCNC(=O)c1nc2cnc3[nH]ccc3c2n1[C@H]1CC[C@H](CC#N)CC1 [Ex. 145, 1-((1r,4r)-4-(Cyanomethyl)cyclohexyl)-N-(2-methoxyethyl)-1,6-dihydroimidazo[4,5-d]pyrrolo[2,3-b]pyridine-2-carboxamide]	0.0011 µM	0.0194 µM	0.175 µM
N#CC[C@H]1CC[C@H](n2c(CO/N=C(\N)CN3CCCCC3)nc3cnc4[nH]ccc4c32)CC1 [Ex. 153, (Z*)—N′-((1-((1r,4r)-4-(Cyanomethyl)cyclohexyl)-1,6-dihydroimidazo[4,5-d]pyrrolo[2,3-b]pyridin-2-yl)methoxy)-2-(piperidin-1-yl)acetimidamide]	0.0037 µM		0.512 µM
N#CC[C@H]1CC[C@H](n2c(CC(=O)NCC3CCCCC3)nc3cnc4[nH]ccc4c32)CC1 [Ex. 69, 2-(1-((1r,4r)-4-(Cyanomethyl)cyclohexyl)-1,6-dihydroimidazo[4,5-d]pyrrolo[2,3-b]pyridin-2-yl)-N-(cyclohexylmethyl)acetamide]	0.0003 µM	0.0156 µM	0.111 µM
N#CC[C@H]1CC[C@H](n2c(CNC(=O)Nc3ccccc3)nc3cnc4[nH]ccc4c32)CC1 [Ex. 70, 1-((1-((1r,4r)-4-(Cyanomethyl)cyclohexyl)-1,6-dihydroimidazo[4,5-d]pyrrolo[2,3-b]pyridin-2-yl)methyl)-3-phenylurea]	0.0004 µM	0.0094 µM	0.108 µM
N#CC[C@H]1CC[C@H](n2c(CN/C(Cc3ccccc3)=N\O)nc3cnc4[nH]ccc4c32)CC1 [Ex. 103, (EZ)—N-((1-((1r,4r)-4-(Cyanomethyl)cyclohexyl)-1,6-dihydroimidazo[4,5-d]pyrrolo[2,3-b]pyridin-2-yl)methyl)-N-hydroxy-2-phenylacetimidamide]	0.0005 µM	0.0113 µM	0.459 µM
CC(C)(C)COC(=O)NCc1nc2cnc3[nH]ccc3c2n1[C@H]1CC[C@H](CC#N)CC1 [Ex. 154, Neopentyl ((1-((1r,4r)-4-(Cyanomethyl)cyclohexyl)-1,6-dihydroimidazo[4,5-d]pyrrolo[2,3-b]pyridin-2-yl)methyl)carbamate]	0.0012 µM	0.0161 µM	0.408 µM

The next compounds have a lower IC50 (JAK3-JH1JH2) than those just listed; values first:

IC50 (JAK1-JH1JH2)	IC50 (Tyk2-JH1JH2)	IC50 (JAK3-JH1JH2)	Compound
0.0009 µM	0.0191 µM	0.0659 µM	N#CC[C@H]1CC[C@H](n2c(C(=O)NCC3(O)CCCCCC3)nc3cnc4[nH]ccc4c32)CC1 [Ex. 136, 1-((1r,4r)-4-(Cyanomethyl)cyclohexyl)-N-((1-hydroxycycloheptyl)methyl)-1,6-dihydroimidazo[4,5-d]pyrrolo[2,3-b]pyridine-2-carboxamide]
0.0002 µM	0.0044 µM	0.0575 µM	N#CC[C@H]1CC[C@H](n2c(CC(=O)NC34CC5CC(CC(O)(C5)C3)C4)nc3cnc4[nH]ccc4c32)CC1 [Ex. 52, 2-(1-((1r,4r)-4-(Cyanomethyl)cyclohexyl)-1,6-dihydroimidazo[4,5-d]pyrrolo[2,3-b]pyridin-2-yl)-N-((1s,3r,5R,7S)-3-hydroxyadamantan-1-yl)acetamide]
0.0001 µM	0.0035 µM	0.0551 µM	N#CC[C@H]1CC[C@H](n2c(CC(=O)NCC34CC5CC(CC(O)(C5)C3)C4)nc3cnc4[nH]ccc4c32)CC1 [Ex. 21, 2-(1-((1r,4r)-4-(Cyanomethyl)cyclohexyl)-1,6-dihydroimidazo[4,5-d]pyrrolo[2,3-b]pyridin-2-yl)-N-(((1S,3R,5R,7S)-3-hydroxyadamantan-1-yl)methyl)acetamide]
0.0001 µM		0.0545 µM	CC(C)(CO)CNC(=O)Cc1nc2cnc3[nH]ccc3c2n1[C@H]1CC[C@H](CC#N)CC1 [Ex. 15, 2-(1-((1r,4r)-4-(Cyanomethyl)cyclohexyl)-1,6-dihydroimidazo[4,5-d]pyrrolo[2,3-b]pyridin-2-yl)-N-(3-hydroxy-2,2-dimethylpropyl)acetamide]
	0.0004 µM	0.0494 µM	N#CC[C@H]1CC[C@H](n2c(CC(=O)N3CCC(C(F)(F)F)CC3)nc3cnc4[nH]ccc4c32)CC1 [Ex. 6, 2-((1r,4r)-4-(2-(2-Oxo-2-(4-(trifluoromethyl)piperidin-1-yl)ethyl)imidazo[4,5-d]pyrrolo[2,3-b]pyridin-1(6H)-yl)cyclohexyl)acetonitrile]
0.0001 µM	0.0012 µM	0.0335 µM	N#CC[C@H]1CC[C@H](n2c(-c3cocn3)nc3cnc4[nH]ccc4c32)CC1 [Ex. 11, 2-((1r,4r)-4-(2-(Oxazol-4-yl)imidazo[4,5-d]pyrrolo[2,3-b]pyridin-1(6H)-yl)cyclohexyl)acetonitrile]
